The results in this text go back to PubChem BioAssay (NCI).

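Results reflect a 48-hour exposure of cells in 96-well plates to compound at five concentrations. GI50: concentration for 50% inhibition of growth. At the TGI there is no net growth.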 Bounds are passed on as bounds.

Test systems include U251 CNS; NCI/ADR-RES ovarian; OVCAR-8 ovarian; HT29 colon; UO-31 renal; MDA-N; A498 renal; M14 melanoma; HOP-92 NSCLC; SNB-75 CNS; ACHN renal; SR leukemia; UACC-257 melanoma.
What all share (assay): inhibition of tumour cell growth, NCI panel, 48 h

`COc1ccc2[nH]c(C(=O)N3CC(CCl)c4c3cc(N)c3ccccc43)cc2c1` (stereo not drawn): the TGI with U251 CNS was 0.0409 µM; in the experiment on NCI/ADR-RES ovarian, less than 0.0172 µM; in the experiment with OVCAR-8 ovarian, less than 0.0177 µM; with HT29 colon it was 1.1 µM; in the experiment on UO-31 renal, less than 0.0164 µM; in the experiment on MDA-N, less than 0.01 µM. In the experiment on A498 renal, this compound registered a TGI of 0.0399 µM.

For `COc1cc(CCN(C)C)cc(OC)c1OC`, the TGI in the experiment with U251 CNS, in the experiment on NCI/ADR-RES ovarian, with OVCAR-8 ovarian, in the experiment with HT29 colon, in the experiment on M14 melanoma and in the experiment with MDA-N was greater than 100 µM throughout. Besides, the TGI in the experiment on HOP-92 NSCLC, in the experiment with SNB-75 CNS, in the experiment with ACHN renal, in the experiment on SR leukemia, in the experiment on UACC-257 melanoma and in the experiment with A498 renal was greater than 100 µM in each case.

In the case of `Clc1ccc(C2CC(c3cccc(Nc4ccncc4)c3)=NN2c2cc(Cl)cc(Cl)c2)cc1` (stereo not drawn), the GI50 was 1.34 µM in the experiment on UO-31 renal; 1.81 µM in the experiment with M14 melanoma; 1.51 µM in the experiment with HOP-92 NSCLC; 1.4 µM in the experiment with SNB-75 CNS; 1.61 µM with ACHN renal; 1.86 µM with SR leukemia. Further, the GI50 in the experiment with UACC-257 melanoma was 2.12 µM. Besides, the TGI in the experiment on UO-31 renal was found to be 2.77 µM; with M14 melanoma, 3.9 µM; in the experiment with HOP-92 NSCLC it was 2.99 µM; in the experiment with SNB-75 CNS it was 2.93 µM; in the experiment on ACHN renal it was 2.98 µM; with SR leukemia it was 4.65 µM. This compound also came in with a TGI in the experiment with UACC-257 melanoma of 4.42 µM.
